# “Also recorded” adds a separate entry of the source.
# Experiments:
# [1] = test system: postoperative pain after removal of impacted third molars; conditions: co-administration of 0.4 mg naloxone, human patients, cited from earlier work
# [2] = test system: postoperative pain after removal of third molar teeth; conditions: nalbuphine alone, data as reported in previous study; cited from earlier work
# [3] = test system: postoperative pain after removal of third molar teeth
# Source text: This is a subjective measurement of pain, in which persons participating in the study are requested to indicate a level of pain at a certain time on a 10-cm line. The patient makes an indication on the line at a value from 0 to 10 indicating the level of pain felt at that time (where 0 indicates no pain and 10 indicates the worst pain imaginable to the patient). […] Tabulations were then made indicating increase or decrease in the pain level with time, with a negative value indicating a decrease in pain experienced by the patient and a positive value, an increase in such pain.
# In this clinical trial, 88 patients underwent standardized surgery by the same oral surgeon for removal of third molar (“wisdom”) teeth, including at least one bony impacted mandibular third molar. Prior to surgery, patients received intravenous diazepam, nitrous oxide, and a local anesthetic (mepivacaine without vasoconstrictor to obtain a nerve block of short duration). […]
# Baseline pain intensity was defined as the last VAS pain rating before administration of the test drug or drugs. VAS pain ratings were recorded at 20-minute intervals beginning ten minutes after administration of the test drug. The duration of the experiment, measured from the time of administration of the test drug, was three hours. […]
# [4] = test system: postoperative pain after removal of impacted wisdom teeth; conditions: cited from earlier work
smiles,measurement,setting,value
CC(C)=CCN1CCC2(C)c3cc(O)ccc3CC1C2C (centres unmarked) [pentazocine],effect of co-administered naloxone on analgesia produced by pentazocine,[1]; 60 mg pentazocine,potentiated
CN1CC[C@]23c4c5ccc(O)c4O[C@H]2[C@@H](O)C=C[C@H]3[C@H]1C5 [morphine],effect of co-administered naloxone on analgesia produced by morphine,[1]; 8 mg morphine,attenuated
Oc1ccc2c3c1O[C@H]1[C@@H](O)CC[C@@]4(O)[C@@H](C2)N(CC2CCC2)CC[C@]314 [nalbuphine],gender x treatment interaction (ANOVA),[2],significant gender x treatment interaction
same,"pain relief (VAS), initial period","[3]; women, nalbuphine 2.5 mg alone vs naloxone 0.4 mg vs combination, nalbuphine-alone data from previous study",slightly better pain relief in women than either naloxone at 0.4 mg or the combination
same,effect on postoperative pain,"[4]; nalbuphine 5 mg alone, men",unexpectedly increased postoperative pain; also recorded: produced a marked increase in pain in men; also recorded: pain-enhancing effect; also recorded: had produced an increase in pain
same,pain modulation effect versus placebo,"[4]; nalbuphine 5 mg alone, women",did not produce pain modulation effects in women that were any better than those achieved by administration of a dose of placebo
same,sex difference of analgesic effects,[4]; women versus men,greater and more consistent in women than in men
C=CCN1CC[C@]23c4c5ccc(O)c4O[C@H]2C(=O)CC[C@@]3(O)[C@H]1C5 [naloxone],gender differences in response (ANOVA),"[3]; Example 1, naloxone 0.4 mg alone or nalbuphine 5 mg + naloxone 0.4 mg, intravenous",lack of gender differences in response

# Source: US6525062B2, “Method of treating pain using nalbuphine and opioid antagonists” (The Regents of the University of California, priority 2000, dated 2003)
